Laboratory results: patent US11739098B2 (BRISTOL-MYERS SQUIBB COMPANY, priority 2017, dated 2023)

Assays:
Type in all cases: cell-based
human TLR9 = target: T1, human TLR9 (Homo sapiens, UniProt Q9NR96); assay: TLR9 inhibition reporter assay (HEK-Blue cells, SEAP reporter, ODN2006 stimulation); conditions: HEK-Blue cells overexpressing human TLR9, SEAP reporter, ODN2006 5 nM
T1 construct: host or cells: HEK-Blue cells (HEK293-derived reporter line)
T1 sequence (Q9NR96 26-1032): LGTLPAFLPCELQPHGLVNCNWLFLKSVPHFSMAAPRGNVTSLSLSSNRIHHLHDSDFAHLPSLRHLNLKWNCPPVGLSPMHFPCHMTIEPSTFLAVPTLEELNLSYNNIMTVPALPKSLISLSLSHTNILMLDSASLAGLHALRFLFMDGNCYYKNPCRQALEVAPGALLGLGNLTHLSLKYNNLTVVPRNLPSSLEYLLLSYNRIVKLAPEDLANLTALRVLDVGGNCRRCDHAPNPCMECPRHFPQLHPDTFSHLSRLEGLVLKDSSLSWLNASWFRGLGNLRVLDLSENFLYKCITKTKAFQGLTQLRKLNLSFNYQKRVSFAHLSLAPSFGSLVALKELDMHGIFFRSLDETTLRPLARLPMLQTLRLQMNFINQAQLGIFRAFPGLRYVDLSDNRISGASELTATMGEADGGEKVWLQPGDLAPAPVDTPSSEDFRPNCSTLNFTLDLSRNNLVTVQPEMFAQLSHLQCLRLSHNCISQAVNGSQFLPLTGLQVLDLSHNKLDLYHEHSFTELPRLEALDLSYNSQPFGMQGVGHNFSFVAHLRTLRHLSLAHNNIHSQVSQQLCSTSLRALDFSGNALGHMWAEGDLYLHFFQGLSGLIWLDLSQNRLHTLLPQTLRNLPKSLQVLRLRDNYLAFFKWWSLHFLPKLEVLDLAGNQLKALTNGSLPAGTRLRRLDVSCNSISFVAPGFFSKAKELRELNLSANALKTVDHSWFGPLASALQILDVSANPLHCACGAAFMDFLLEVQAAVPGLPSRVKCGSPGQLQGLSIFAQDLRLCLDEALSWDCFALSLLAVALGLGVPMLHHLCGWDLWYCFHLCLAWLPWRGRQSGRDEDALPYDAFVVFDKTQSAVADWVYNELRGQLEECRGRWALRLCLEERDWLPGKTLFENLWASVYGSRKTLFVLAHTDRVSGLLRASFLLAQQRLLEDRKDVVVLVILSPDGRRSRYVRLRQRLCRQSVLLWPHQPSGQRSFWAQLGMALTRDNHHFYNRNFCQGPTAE
Summary of the method: (§1)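 HEK-Blue cells overexpressing the receptor, with NF-κB/AP-1-driven SEAP, were pre-treated 30 min at room temperature with compound (0.05 nM–50 μM), then stimulated with gardiquimod 7.5 μM (TLR7), R848 15.9 μM (TLR8) or ODN2006 5 nM (TLR9). SEAP was read after 22 h at 37 °C as percent inhibition.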

human TLR8 = target: T2, human TLR8 (Homo sapiens, UniProt Q9NR97); assay: TLR8 inhibition reporter assay (HEK-Blue cells, SEAP reporter, R848 stimulation); conditions: HEK-Blue cells overexpressing human TLR8, SEAP reporter, R848 15.9 μM
T2 construct: host or cells: HEK-Blue cells (HEK293-derived reporter line)
T2 sequence (Q9NR97 27-1041): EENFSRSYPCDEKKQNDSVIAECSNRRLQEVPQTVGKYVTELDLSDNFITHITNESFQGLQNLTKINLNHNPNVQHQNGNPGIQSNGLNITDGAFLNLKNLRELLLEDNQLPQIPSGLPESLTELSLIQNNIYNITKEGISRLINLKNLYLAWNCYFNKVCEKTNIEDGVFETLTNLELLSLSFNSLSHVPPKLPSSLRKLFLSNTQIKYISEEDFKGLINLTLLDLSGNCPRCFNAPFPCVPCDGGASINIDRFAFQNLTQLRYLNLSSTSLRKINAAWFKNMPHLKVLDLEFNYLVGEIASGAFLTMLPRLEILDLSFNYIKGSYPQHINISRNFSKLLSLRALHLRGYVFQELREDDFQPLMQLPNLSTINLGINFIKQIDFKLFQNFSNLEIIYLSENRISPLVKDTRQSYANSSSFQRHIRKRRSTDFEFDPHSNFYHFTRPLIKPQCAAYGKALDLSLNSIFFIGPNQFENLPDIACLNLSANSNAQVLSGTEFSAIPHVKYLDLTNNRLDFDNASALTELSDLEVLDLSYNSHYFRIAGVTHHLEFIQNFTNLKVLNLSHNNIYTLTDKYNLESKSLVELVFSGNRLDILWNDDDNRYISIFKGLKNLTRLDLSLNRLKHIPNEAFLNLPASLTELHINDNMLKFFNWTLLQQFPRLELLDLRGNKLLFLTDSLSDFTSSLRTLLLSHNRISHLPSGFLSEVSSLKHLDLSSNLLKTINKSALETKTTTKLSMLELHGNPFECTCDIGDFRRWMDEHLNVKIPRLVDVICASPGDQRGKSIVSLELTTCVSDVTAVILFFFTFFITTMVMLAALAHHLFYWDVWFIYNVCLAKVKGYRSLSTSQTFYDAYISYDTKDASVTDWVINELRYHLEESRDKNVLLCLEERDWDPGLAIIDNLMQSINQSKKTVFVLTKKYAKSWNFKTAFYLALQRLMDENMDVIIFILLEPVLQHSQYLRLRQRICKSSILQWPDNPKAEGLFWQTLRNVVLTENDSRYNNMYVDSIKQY
Summary of the method: as §1

human TLR7 = target: T3, human TLR7 (Homo sapiens, UniProt Q9NYK1); assay: TLR7 inhibition reporter assay (HEK-Blue cells, SEAP reporter, gardiquimod stimulation); conditions: HEK-Blue cells overexpressing human TLR7, SEAP reporter, gardiquimod 7.5 μM
T3 construct: host or cells: HEK-Blue cells (HEK293-derived reporter line)
T3 sequence (Q9NYK1 27-1049): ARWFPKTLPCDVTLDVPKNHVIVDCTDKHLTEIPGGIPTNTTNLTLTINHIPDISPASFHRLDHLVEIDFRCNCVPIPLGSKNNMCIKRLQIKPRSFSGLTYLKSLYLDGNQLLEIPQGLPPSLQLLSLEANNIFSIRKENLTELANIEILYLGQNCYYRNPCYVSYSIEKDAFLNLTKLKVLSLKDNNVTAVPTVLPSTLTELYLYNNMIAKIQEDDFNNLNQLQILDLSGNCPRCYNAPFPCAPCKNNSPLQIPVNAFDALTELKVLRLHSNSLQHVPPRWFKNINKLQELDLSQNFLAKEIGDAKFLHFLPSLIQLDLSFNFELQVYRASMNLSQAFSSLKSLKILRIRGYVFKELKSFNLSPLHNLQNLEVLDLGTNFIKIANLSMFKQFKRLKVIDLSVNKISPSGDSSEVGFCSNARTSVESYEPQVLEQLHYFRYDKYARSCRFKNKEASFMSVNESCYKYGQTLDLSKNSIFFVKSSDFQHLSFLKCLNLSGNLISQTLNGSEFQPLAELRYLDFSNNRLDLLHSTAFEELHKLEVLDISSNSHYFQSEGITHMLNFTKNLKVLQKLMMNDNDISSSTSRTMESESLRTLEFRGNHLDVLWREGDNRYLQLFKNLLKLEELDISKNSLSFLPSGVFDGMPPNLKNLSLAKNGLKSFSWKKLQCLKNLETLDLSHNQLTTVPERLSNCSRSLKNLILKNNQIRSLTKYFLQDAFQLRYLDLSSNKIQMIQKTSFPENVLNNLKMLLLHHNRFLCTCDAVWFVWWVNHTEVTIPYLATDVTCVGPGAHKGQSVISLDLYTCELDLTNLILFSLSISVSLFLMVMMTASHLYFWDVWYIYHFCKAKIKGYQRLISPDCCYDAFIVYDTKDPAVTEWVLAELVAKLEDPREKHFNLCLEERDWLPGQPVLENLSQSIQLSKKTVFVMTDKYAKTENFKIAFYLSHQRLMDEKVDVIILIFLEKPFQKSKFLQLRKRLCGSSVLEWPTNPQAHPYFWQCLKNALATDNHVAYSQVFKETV
Summary of the method: as §1

Row | IC50 (human TLR9) [nM] | IC50 (human TLR8) [nM] | IC50 (human TLR7) [nM] | Structure (SMILES)
1 | 1000 to 50000 | < 100 | < 100 | CC(C)c1c(-c2ccnc3[nH]ncc23)[nH]c2ccc(C3CCN(Cc4cn5ccccc5n4)CC3)cc12 [Example 862, 4-(5-(1-(imidazo[1,2-a]pyridin-2-ylmethyl)piperidin-4-yl)-3-isopropyl-1H-indol-2-yl)-1H-pyrazolo[3,4-b]pyridine]
2 | 1000 to 50000 | < 100 | < 100 | COc1cc(-c2[nH]c3ccc(C4CCN(C5COC5)CC4)cc3c2C(C)C)cc2ncnn12 [Example 710, 7-(3-isopropyl-5-(1-(oxetan-3-yl)piperidin-4-yl)-1H-indol-2-yl)-5-methoxy-[1,2,4]triazolo[1,5-a]pyridine]
3 | 100 to 1000 | < 100 | < 100 | COc1ccc(CN2CCC(c3ccc4[nH]c(-c5ccc6nccn6c5)c(C(C)C)c4c3)CC2)cn1 [Example 935, 6-(3-isopropyl-5-(1-((6-methoxypyridin-3-yl)methyl)piperidin-4-yl)-1H-indol-2-yl)imidazo[1,2-a]pyridine]
4 | 1000 to 50000 | < 100 | 100 to 1000 | CCc1c(-c2ccnc3[nH]ncc23)[nH]c2ccc(C3CCN(C(C)C)CC3)cc12 [Example 957, 4-(3-ethyl-5-(1-isopropylpiperidin-4-yl)-1H-indol-2-yl)-1H-pyrazolo[3,4-b]pyridine]
5 | 1000 to 50000 | < 100 | < 100 | Cc1c(-c2[nH]c3ccc(C4CCN(CC(C)(C)O)CC4)cc3c2C(C)C)ccc2c1cnn2C [Example 763, 1-(4-(2-(1,4-dimethyl-1H-indazol-5-yl)-3-isopropyl-1H-indol-5-yl)piperidin-1-yl)-2-methylpropan-2-ol]

Continued, compound first:

Row | Structure (SMILES) | IC50 (human TLR9) [nM] | IC50 (human TLR8) [nM] | IC50 (human TLR7) [nM]
6 | CCOc1cc(-c2[nH]c3ccc(C4CCN(C(=O)CN(C)C)CC4)cc3c2C(C)C)cc2nc(C)nn12 [Example 497, 2-(dimethylamino)-1-(4-(2-(5-ethoxy-2-methyl-[1,2,4]triazolo[1,5-a]pyridin-7-yl)-3-isopropyl-1H-indol-5-yl)piperidin-1-yl)ethan-1-one] | 1000 to 50000 | < 100 | < 100
7 | CC(C)c1c(-c2ccnc3[nH]ncc23)[nH]c2ccc(C3CCN(C(=O)CN4CCCN(C)CC4)CC3)cc12 [Example 577, 1-(4-(3-isopropyl-2-(1H-pyrazolo[3,4-b]pyridin-4-yl)-1H-indol-5-yl)piperidin-1-yl)-2-(4-methyl-1,4-diazepan-1-yl)ethan-1-one] | 100 to 1000 | < 100 | < 100
8 | Cc1c(-c2ccnc3cc[nH]c23)[nH]c2ccc(C3CCNCC3)cc12 [Example 23, 7-(3-methyl-5-(piperidin-4-yl)-1H-indol-2-yl)-1H-pyrrolo[3,2-b]pyridine] | 100 to 1000 | < 100 | < 100
9 | CC(C)c1c(-c2ccc(C#N)c3ncccc23)[nH]c2ccc(C3CCNCC3)cc12 [Example 109, 5-(3-isopropyl-5-(piperidin-4-yl)-1H-indol-2-yl)quinoline-8-carbonitrile] | 100 to 1000 | < 100 | < 100
10 | COc1c(C)c(-c2[nH]c3ccc(C4CCN(C5CCOCC5)CC4)cc3c2C(C)C)nn2ncnc12 [Example 685, 6-(3-isopropyl-5-(1-(tetrahydro-2H-pyran-4-yl)piperidin-4-yl)-1H-indol-2-yl)-8-methoxy-7-methyl-[1,2,4]triazolo[1,5-b]pyridazine] | 1000 to 50000 | < 100 | < 100
11 | Cc1cc(-c2[nH]c3ccc(C4CCN(CC(=O)N(C)C)CC4)cc3c2C(C)C)cc2cncn12 [Example 439, 2-(4-(3-isopropyl-2-(5-methylimidazo[1,5-a]pyridin-7-yl)-1H-indol-5-yl)piperidin-1-yl)-N,N-dimethylacetamide] | 1000 to 50000 | < 100 | < 100
12 | Cc1cn2cc(-c3[nH]c4ccc(C5CCNCC5)cc4c3C(C)C)cc(C)c2n1 [Example 120, 6-(3-isopropyl-5-(piperidin-4-yl)-1H-indol-2-yl)-2,8-dimethylimidazo[1,2-a]pyridine] | 100 to 1000 | < 100 | < 100
13 | CC(C)c1c(-c2c[nH]c3ncccc23)[nH]c2ccc(C3CCNCC3)cc12 [Example 17, 3-(3-isopropyl-5-(piperidin-4-yl)-1H-indol-2-yl)-1H-pyrrolo[2,3-b]pyridine] | 100 to 1000 | < 100 | < 100
14 | Cc1cc(-c2[nH]c3ccc(C4CCNCC4)cc3c2C(C)C)cc2ncc(O)nc12 [Example 87, 6-(3-isopropyl-5-(piperidin-4-yl)-1H-indol-2-yl)-8-methylquinoxalin-2-ol] | 100 to 1000 | < 100 | < 100
15 | CC(C)c1c(-c2ccnc3[nH]ccc23)[nH]c2ccc(C3CCN(C(=O)CN(C)C)CC3)cc12 [Example 564, 2-(dimethylamino)-1-(4-(3-isopropyl-2-(1H-pyrrolo[2,3-b]pyridin-4-yl)-1H-indol-5-yl)piperidin-1-yl)ethan-1-one] | 1000 to 50000 | < 100 | < 100
